Source: US20030113263A1, “Methods and reagents for using mammalian melanocortin receptor antagonists to treat cachexia” (Oregon Health and Sciences University, a non-profit …, priority 2001, published 2003)

Experiments:
[1] = target: T1, human MC-4 melanocortin receptor (Homo sapiens, UniProt P32245); test: intracellular cAMP accumulation (adenylate cyclase coupling) in transfected human 293 cells; format: cell-based; parameters: expressed in transfected cells; conditions: 293 cells expressing human MC-4 receptor, 45 min at 37° C.
Target sequence in this assay (P32245 whole entry): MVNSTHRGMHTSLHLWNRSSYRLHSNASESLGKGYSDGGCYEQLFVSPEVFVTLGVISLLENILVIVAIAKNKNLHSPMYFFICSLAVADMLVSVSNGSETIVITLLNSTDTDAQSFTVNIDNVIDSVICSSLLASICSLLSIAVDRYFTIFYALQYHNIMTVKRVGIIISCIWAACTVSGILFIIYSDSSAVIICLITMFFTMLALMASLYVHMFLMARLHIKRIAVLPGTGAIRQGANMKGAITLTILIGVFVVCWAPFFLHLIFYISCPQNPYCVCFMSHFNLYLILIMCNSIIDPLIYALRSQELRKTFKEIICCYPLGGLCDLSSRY
Procedure: Melanocortin receptor coupling to G-proteins in cells expressing the MC-4 melanocortin receptor was used analyze expression of the receptor in cell colonies transfected with the expression vectors described herein as follows. Cells (˜1×10^6) were plated in 6-well dishes, washed once with DMEM containing 1% bovine serum albumin (BSA) and 0.5mM IBMX (a phosphodiesterase inhibitor), then incubated for 45 minutes at 37° C. with varying concentrations of the melanotropic peptides. Following hormone treatment, the cells were washed twice with phosphate buffered saline and intracellular cAMP extracted by lysing the cells with 1 ml of 60% ethanol.

[2] = target: T1, human MC-4 melanocortin receptor; test: cell-based or functional assay
Target sequence in this assay (P32245 other isoform, or with tags, fused parts or gaps): as the sequence (P32245 whole entry) above, with E42A, V65E, V103I, S109R, I169S, M215L, C318S, C319S counted along it

[3] = test system: LPS-induced anorexia and fever in rats; conditions: central administration; cited from earlier work
[4] = target: T1, human MC-4 melanocortin receptor; test: antagonism of agonist-induced cAMP elevation, Schild analysis; format: cell-based; parameters: expressed in transfected cells; conditions: agouti peptide approx. 60% pure; results not shown
Target sequence in this assay (P32245 whole entry): as the sequence (P32245 whole entry) above

With `CSCC[C@H](N)C(=O)N[C@@H](CCC(=O)O)C(=O)N[C@@H](Cc1c[nH]cn1)C(=O)N[C@@H](Cc1ccccc1)C(=O)N[C@@H](CCCNC(=N)N)C(=O)N[C@@H](Cc1c[nH]c2ccccc12)C(=O)NCC(=O)O` [ACTH4-10] the EC50 [1] was over 100 nM.

In the case of “ACTH1-39 (from UniProt P01189 138-176) (peptide)”, the Ec50 (adenylate cyclase activity, intracellular cAMP accumulation in transfected 293 cells) [2] is reported as 0.68 nM.

With “ACTH4-10 (from UniProt P01189) (peptide)” the Ec50 (adenylate cyclase activity, intracellular cAMP accumulation in transfected 293 cells) [2] was over 100 nM.

For “Ac-Nle^4-cyclo(Asp^5, D-Nal(2)^7, Lys^10) αMSH-(4-10)-amide [SHU9119]”, the “effect on LPS-induced fever” value [3] is listed as “increased” and the “effect on LPS-induced suppression of food intake” value [3] is listed as “reversal of LPS-induced anorexia”.

In the case of “α-melanocyte stimulating hormone [α-MSH]”, the “effect on LPS-induced fever” value [3] is given as “reduced” and the “effect on LPS-induced suppression of food intake” value [3] is given as “significant potentiation of the suppressive effects of LPS on food intake”.

Work on “γ2-MSH (from UniProt P01189 77-88) (peptide)” yielded an Ec50 (adenylate cyclase activity, intracellular cAMP accumulation in transfected 293 cells) [2] of over 100 nM.

B1: agouti: murine agouti peptide produced using a baculovirus system, approximately 60% pure (protein)
chain: HLALEETLGDDRSLRSNSSMNSLDFSSVSIVALNKKSKKISRKEAEKRKRSSKKKASMKKVARPPPPSPCVATRDSCKPPAPACCDPCASCQCRFFGSACTCRVLNPNC
In the case of B1, the “competition of α-MSH activation of human MC-4 melanocortin receptors” value [4] is reported as “Specific competition”.
